Results as given in patent publication US12285399B2, “Composition comprising bornyl acetate or pharmaceutically acceptable salt thereof as active ingredient for prevention or treatment of stress-related disorder” (UNIVERSITY-INDUSTRY COOPERATION GROUP OF KYUNG HEE …, priority 2019, dated 2025).

Tests used:
Type in all cases: in vivo, C57BL/6NTac mice
[1] = Body weight change in chronic restrained stress (CRS) depression model; conditions: CRS+BA group, oral, 14 days of restrained stress, 14th day
Method: In order to confirm the antidepressant efficacy of bornyl acetate on the animal model of stress depression, an animal model of depression induced by chronic restrained stress (CRS) was prepared. Specifically, the animal model, 8-week-old male C57BL/6NTac mice after birth (Narabiotechnology, Korea; weight 22-24 g) had been stabilized for 1 week. A 50 ml conical tube (SPL Life sciences, Pocheon, Korea) was punched to make a hole, thereby making a restraint frame. The mice were put in the frame and restrained for 2 hours every day for 14 days. After restraint, the mice were allowed to freely ingest water and food in the home cage. Bornyl acetate (25, 50 and 100 mg/kg) of the present invention was dissolved in 0.1 M PBS, and the mixture was orally administered 1 hour before inducing restrained stress every day. Bornyl acetate was administered in a dose per individual of 100 μl. Specifically, the mice were weighed during or after applying restrained stress for 2 hours per day for 14 days, followed by a tail suspension test and forced swimming test were performed, and serum stress hormone (corticosterone) levels were measured (FIGS. 1A and 1B).

COX-2 mRNA = experiment: RT-PCR of COX-2 mRNA in brain (hippocampus and amygdala) of CRS model; conditions: CRS+BA group, 100 mg/kg oral
Method: (§1) In order to confirm the antidepressant efficacy of bornyl acetate on the animal model of stress depression, an animal model of depression induced by chronic restrained stress (CRS) was prepared. Specifically, the animal model, 8-week-old male C57BL/6NTac mice after birth (Narabiotechnology, Korea; weight 22-24 g) had been stabilized for 1 week. A 50 ml conical tube (SPL Life sciences, Pocheon, Korea) was punched to make a hole, thereby making a restraint frame. The mice were put in the frame and restrained for 2 hours every day for 14 days. After restraint, the mice were allowed to freely ingest water and food in the home cage.
In order to confirm the inhibitory effect of bornyl acetate on the expression of inflammatory mediators in an animal model of depression induced by chronic restrained stress, mRNA expression was confirmed using reverse transcription-polymerase chain reaction (RT-PCR). Bornyl acetate (100 mg/kg) was orally administered 1 hour before inducing the restrained stress every day. […]
Western blot and RT-PCR analysis were performed in the brain (hippocampus and amygdala) of an animal model of chronic restrained stress (CRS)-induced stress depression to exam and quantify the activation level of inflammatory mediators, thereby verifying the modulating effect of bornyl acetate on the inflammatory response in the brain. […]

Iba-1 = experiment: Immunohistochemical staining for Iba-1 (microglia activation) in brain of CRS model; conditions: hippocampus and amygdala, CRS+BA group, 100 mg/kg oral
Method: as §1, with “cage. Bornyl acetate (100 mg/kg) was administered orally 1 hour before induction of restraint stress every day. 14 days later, the mice were anesthetized, and 4% paraformaldehyde was perfused into the heart. Then, the mice were fixed, and the brain was excised. The excised brain was immersed in 4% paraformaldehyde and fixed at 4° C. for one more day. It was then changed to 30% sucrose, and the brain was stored at 4° C. for 3 days or more to prevent freeze damage. The brain was cut into a thickness of 30 μm using a cryocut microtome to prepare the frozen sections. […]” for “cage.”

CC(=O)OC1CC2CCC1(C)C2(C)C (stereo not shown) [BA, bornyl acetate]
body weight change [1]: no significant increase or decrease | mRNA expression of COX-2 (CRS-induced increase) (COX-2 mRNA; amygdala): significantly inhibited | mRNA expression of COX-2 (CRS-induced increase) (COX-2 mRNA; hippocampus): significantly inhibited | activation degree of microglia immunostained by Iba-1 (Iba-1): consistent
